Reference: PubChem BioAssay (NCI)
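In this assay, cells in 96-well plates receive the compound at five concentrations for 48 hours. Endpoints are linearly interpolated between the surrounding concentrations. GI50 is the concentration that inhibits growth by half. The concentration for full growth arrest is given as TGI.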

Columns and labels:
Test in all cases: DTP human tumour cell line panel, 48 h
[1] = system: 786-0 renal
[2] = system: A498 renal
[3] = system: A549 NSCLC
[4] = system: ACHN renal
[5] = system: BT-549 breast
[6] = system: CAKI-1 renal
[7] = system: CCRF-CEM leukemia
[8] = system: COLO 205 colon
[9] = system: DU-145 prostate
[10] = system: EKVX NSCLC
[11] = system: HCC-2998 colon
[12] = system: HCT-116 colon
[13] = system: HCT-15 colon
[14] = system: HL-60(TB) leukemia
[15] = system: HOP-62 NSCLC
[16] = system: HOP-92 NSCLC
[17] = system: HS 578T breast
[18] = system: HT29 colon
[19] = system: IGROV1 ovarian
[20] = system: K-562 leukemia
[21] = system: KM12 colon
[22] = system: LOX IMVI melanoma
[23] = system: M14 melanoma
[24] = system: MALME-3M melanoma
[25] = system: MCF7 breast
[26] = system: MDA-MB-231 breast
[27] = system: MDA-MB-435
[28] = system: MDA-MB-468 breast
[29] = system: MOLT-4 leukemia
[30] = system: NCI-H226 lung
[31] = system: NCI-H23 lung
[32] = system: NCI-H460 lung
[33] = system: NCI-H522 lung
[34] = system: OVCAR-3 ovarian
[35] = system: OVCAR-4 ovarian
[36] = system: OVCAR-5 ovarian
[37] = system: OVCAR-8 ovarian
[38] = system: PC-3 prostate
[39] = system: RPMI-8226 leukemia
[40] = system: RXF 393 renal
[41] = system: SF-268 CNS
[42] = system: SF-295 CNS
[43] = system: SF-539 CNS
[44] = system: SK-MEL-2 melanoma
[45] = system: SK-MEL-28 melanoma
[46] = system: SK-MEL-5 melanoma
[47] = system: SK-OV-3 ovarian
[48] = system: SNB-19 CNS
[49] = system: SNB-75 CNS
[50] = system: SR leukemia
[51] = system: SW-620 colon
[52] = system: T-47D breast
[53] = system: TK-10 renal
[54] = system: U251 CNS
[55] = system: UACC-257 melanoma
[56] = system: UACC-62 melanoma
[57] = system: UO-31 renal

N#C[Se]CC(=O)Nc1cccc(C(F)(F)F)c1
GI50 [1]: 2250 nM
TGI [1]: 4.92 µM
GI50 [2]: 3.95 µM
TGI [2]: 17.7 µM
GI50 [3]: 1870 nM
TGI [3]: 4.27 µM
GI50 [4]: 3.29 µM
TGI [4]: 9.98 µM
GI50 [5]: 1570 nM
TGI [5]: 3.05 µM
GI50 [6]: 2230 nM
TGI [6]: 4.77 µM
GI50 [7]: 4.34 µM
TGI [7]: 34.6 µM
GI50 [8]: 10.1 µM
TGI [8]: 24.3 µM
GI50 [9]: 1900 nM
TGI [9]: 4.32 µM
GI50 [10]: 1460 nM
TGI [10]: 2940 nM
GI50 [11]: 13.7 µM
TGI [11]: 29.5 µM
GI50 [12]: 1920 nM
TGI [12]: 4.16 µM
GI50 [13]: 1720 nM
TGI [13]: 3.31 µM
GI50 [14]: 2220 nM
TGI [14]: 6.31 µM
GI50 [15]: 3.41 µM
TGI [15]: 9.67 µM
GI50 [16]: 1840 nM
TGI [16]: 3.63 µM
GI50 [17]: 2460 nM
TGI [17]: 9.3 µM
GI50 [18]: 3.66 µM
TGI [18]: 15.2 µM
GI50 [19]: 1550 nM
TGI [19]: 3.57 µM
GI50 [20]: 6.02 µM
TGI [20]: > 100 µM
GI50 [21]: 6.87 µM
TGI [21]: 33.8 µM
GI50 [22]: 1490 nM
TGI [22]: 3.21 µM
GI50 [23]: 1900 nM
TGI [23]: 5.02 µM
GI50 [24]: 1510 nM
TGI [24]: 3.24 µM
GI50 [25]: 2720 nM
TGI [25]: 20 µM
GI50 [26]: 1850 nM
TGI [26]: 3.67 µM
GI50 [27]: 1950 nM
TGI [27]: 4.35 µM
GI50 [28]: 1710 nM
TGI [28]: 3.44 µM
GI50 [29]: 3.77 µM
TGI [29]: 26.2 µM
GI50 [30]: 1780 nM
TGI [30]: 4.74 µM
GI50 [31]: 2250 nM
TGI [31]: 5.59 µM
GI50 [32]: 2470 nM
TGI [32]: 9.83 µM
GI50 [33]: 3.62 µM
TGI [33]: 14.5 µM
GI50 [34]: 2330 nM
TGI [34]: 7.21 µM
GI50 [35]: 5.93 µM
TGI [35]: 62 µM
GI50 [36]: 2690 nM
TGI [36]: 7.17 µM
GI50 [37]: 2010 nM
TGI [37]: 4.48 µM
GI50 [38]: 5.77 µM
TGI [38]: 31 µM
GI50 [39]: 18.3 µM
TGI [39]: 86.7 µM
GI50 [40]: 2370 nM
TGI [40]: 6.01 µM
GI50 [41]: 3.16 µM
TGI [41]: 12.2 µM
GI50 [42]: 2040 nM
TGI [42]: 4.1 µM
GI50 [43]: 1780 nM
TGI [43]: 3.25 µM
GI50 [44]: 9.03 µM
TGI [44]: 47.8 µM
GI50 [45]: 2010 nM
TGI [45]: 5.07 µM
GI50 [46]: 1190 nM
TGI [46]: 2780 nM
GI50 [47]: 8.34 µM
TGI [47]: 31.9 µM
GI50 [48]: 1860 nM
TGI [48]: 4.08 µM
GI50 [49]: 1720 nM
TGI [49]: 5.26 µM
GI50 [50]: 5.35 µM
TGI [50]: > 100 µM
GI50 [51]: 2410 nM
TGI [51]: 5.55 µM
GI50 [52]: 6.48 µM
TGI [52]: 86.6 µM
GI50 [53]: 2550 nM
TGI [53]: 6.79 µM
GI50 [54]: 2130 nM
TGI [54]: 5.52 µM
GI50 [55]: 3.1 µM
TGI [55]: 19.9 µM
GI50 [56]: 1730 nM
TGI [56]: 4.33 µM
GI50 [57]: 1300 nM
TGI [57]: 2650 nM
